Peptide text beside a SMILES is read from it. * marks the point of attachment. βNA = c1ccc2cc(N*)ccc2c1
Tests used:
CHO cells = assay: Toxicity on CHO cultured cells; format: cell-based; settings: killing of 50% of the CHO cells after 24 hours of incubation
Experimental: The toxicity of each compound was determined on CHO cultured cells. Incubation of CHO cells was performed with serial dilution of compounds. The compounds are either solubilized in DMSO or in PBS. The IC50 corresponds to the concentration of compounds leading to a killing of 50% of the CHO cells after 24 hours of incubation.

[1] = tested on: Enterobacter aerogenes MDR Ea289; assay: MIC of antibiotics ± test compound (MIC ratio), micro-broth dilution; format: cell-based; settings: chloramphenicol
Experimental: The process consists of treating the MDR bacteria with the compounds of the invention in the presence of antibiotics.
Susceptibilities to antibiotics and compounds were determined in microplates by broth dilution method, as previously described. Minimal Inhibitory Concentrations (MICs) were determined with an inoculum of 10^6 CFU in 200 μL of MH broth containing two-fold serial dilutions of each drug. […] All MIC determinations were repeated at least three times in independent experiments.
The MICs of chloramphenicol±test compounds (MIC/4) were determined by the micro-broth dilution method (9). All MIC determinations were repeated at least three times in independent experiments. The MIC ratio corresponds to the ratio of the MIC of an antibiotic alone to the MIC of the same antibiotic in the presence of the tested compound (at MIC/4).
The compounds listed in Table 2 were tested for their ability to decrease the chloramphenicol MIC of Ea289, an Enterobacter aerogenes MDR strain (1). Each compound was first tested at MIC/4. […] All MIC determinations were repeated at least three times in independent experiments.
For reminder, the MIC ratio corresponds to the ratio of the MIC of the assessed antibiotic alone to the MIC of the same antibiotic in the presence of the tested compound (at MIC/4).

A. Baumannii ATCC19606 = assay: Susceptibility of Gram-negative strains to macrolides in the presence of test compound; format: cell-based, Acinetobacter baumannii; design: Susceptibility to Clarithomycin, A. Baumannii ATCC19606: key to the marks not given beside the values
E. Coli AG100 = assay: as above; format: cell-based, Escherichia coli; design: Susceptibility to Clarithomycin, E. Coli AG100 / Susceptibility to Erythromycin, E. Coli AG100: key to the marks not given beside the values
E. aerogenes ATCC13048 = assay: as above; format: cell-based, Enterobacter aerogenes
[2] = tested on: S. enterica Thyphimurium ATCC13311; assay: as above; format: cell-based, Salmonella enterica Typhimurium; design: key to the marks not given beside the values

N=C(N)NCCC[C@H](NC(=O)[C@@H](N)Cc1ccccc1)C(=O)Nc1ccc2ccccc2c1 [PAβN, Phenyl-Arginine β-Naphtylamide] (H-Phe-Arg-βNA)
+: Susceptibility to Erythromycin, A. Baumannii ATCC19606 (A. Baumannii ATCC19606) | Susceptibility to Spiramycin, A. Baumannii ATCC19606 (A. Baumannii ATCC19606) | Susceptibility to Spiramycin, E. Coli AG100 (E. Coli AG100) | Susceptibility to Clarithomycin, E. aerogenes ATCC13048 (E. aerogenes ATCC13048) | Susceptibility to Erythromycin, E. aerogenes ATCC13048 (E. aerogenes ATCC13048) | Susceptibility to Spiramycin, E. aerogenes ATCC13048 (E. aerogenes ATCC13048)
0.038 mM: Effective concentration (mM) for a MIC ratio of chloramphenicol ≥ 8 on Ea289 [1]
++: Susceptibility to Clarithomycin, A. Baumannii ATCC19606 (A. Baumannii ATCC19606) | Susceptibility to Clarithomycin, E. Coli AG100 (E. Coli AG100) | Susceptibility to Erythromycin, E. Coli AG100 (E. Coli AG100) | Susceptibility to Clarithomycin, S. enterica Thyphimurium ATCC13311 [2] | Susceptibility to Erythromycin, S. enterica Thyphimurium ATCC13311 [2] | Susceptibility to Spiramycin, S. enterica Thyphimurium ATCC13311 [2]
> 5 mM: IC50 (CHO cells)
